The text below walks through data of article PMC9583330, “Quinazoline-4(3H)-one-7-carboxamide Derivatives as Human Soluble Epoxide Hydrolase Inhibitors with Developable 5-Lipoxygenase Activating Protein Inhibition” (ACS Omega, 2022).

Where two headings read alike, the source gives them in different places.

The subject of data set [1] is FLAP-mediated cellular LT formation in human neutrophils. On the set-up: method as in PMID 32045233. The note with it: previously identified; read-out: IC50, inhibition of cellular leukotriene (LT) biosynthesis by targeting FLAP; cited from earlier work.
The target in data set [2] is T1, Human recombinant sEH (Homo sapiens, UniProt P34913).
T1 construct: made in house; host or cells: Sf9 insect cells, recombinant baculovirus from Dr. B. Hammock
T1 sequence (P34913 1-555): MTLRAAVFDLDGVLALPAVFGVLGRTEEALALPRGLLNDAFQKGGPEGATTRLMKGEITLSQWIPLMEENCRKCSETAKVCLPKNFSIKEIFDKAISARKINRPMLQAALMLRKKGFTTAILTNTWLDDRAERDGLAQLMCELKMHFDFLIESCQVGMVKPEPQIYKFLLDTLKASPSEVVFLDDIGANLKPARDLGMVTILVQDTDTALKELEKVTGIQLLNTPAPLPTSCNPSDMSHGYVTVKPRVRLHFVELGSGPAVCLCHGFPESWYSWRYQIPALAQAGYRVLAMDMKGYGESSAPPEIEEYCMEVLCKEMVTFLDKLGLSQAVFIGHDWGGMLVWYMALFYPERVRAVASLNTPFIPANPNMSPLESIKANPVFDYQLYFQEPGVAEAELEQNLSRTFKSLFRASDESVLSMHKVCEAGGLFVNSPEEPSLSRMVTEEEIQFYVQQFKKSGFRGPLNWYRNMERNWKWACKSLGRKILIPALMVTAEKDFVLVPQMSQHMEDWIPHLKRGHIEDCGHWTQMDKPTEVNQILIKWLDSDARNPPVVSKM
On the set-up: method as in PMID 32045233. As to conditions: previously identified compound; cited from earlier work.

The subject of data set [3] is FLAP-mediated cellular LT formation in human neutrophils. The experiment in a line: FLAP-dependent 5-LO product formation in intact neutrophils. It counts as cell-based. As to conditions: Neutrophil; for IC50: Homo sapiens, intact neutrophils challenged with 2.5 μM ionophore plus 20 μM arachidonic acid; for activity at 1 µM: 1 μM inhibitor, read-out: 5-LO product formation in neutrophils, remaining activity (% of control) at 1 μM; for activity at 1 µM / activity at 10 µM: human neutrophils, 2.5 μM Ca2+-ionophore A23187, means ± SEM, n = 4–5; for activity at 10 µM: 10 μM inhibitor, read-out: 5-LO product formation in neutrophils, remaining activity (% of control) at 10 μM. How it is done:
Neutrophils were isolated from leukocyte concentrates obtained from freshly withdrawn peripheral blood of healthy adult male and female donors which were provided by the Institute of Transfusion Medicine, University Hospital Jena, Germany. The experimental protocol was approved by the ethical committee of the University Hospital Jena, and all methods were performed in accordance with the relevant guidelines and regulations. The leukocyte concentrates were mixed with dextran (from Leuconostoc spp. MW ∼40,000, Sigma Aldrich) for sedimentation of erythrocytes, and the supernatant was centrifuged on lymphocyte separation medium (Histopaque-1077, Sigma Aldrich). Contaminating erythrocytes in the pelleted neutrophils were removed by hypotonic lysis using distilled water. The neutrophils were washed twice in ice-cold PBS pH 7.4 and finally resuspended in PBS pH 7.4 plus 1 mg/mL glucose (PGC buffer).
Human neutrophils [5 × 10^6; in PGC buffer; incubation volume, 1 mL] were preincubated with 0.1% DMSO (vehicle) or with the compounds at 37 °C for 15 min. […] Samples were then subjected to solid-phase extraction on C18-columns (100 mg, UCT, Bristol, PA), and 5-LO products (LTB4 and its trans-isomers, and 5-H(p)ETE) were extracted and analyzed in the presence of internal standard PGB1 by RP-HPLC and UV detection as reported elsewhere.[45]

Data set [4] addresses T1, Human recombinant sEH. The experiment in a line: sEH cell-free fluorescence-based assay (PHOME substrate). It counts as biochemical. The note with it: means ± SEM, n = 3; for IC50: cell-free assay, human sEH; for remaining activity at 10 µM: residual activity at 10 μM, control = vehicle 100%. On the procedure: Human recombinant sEH was expressed and purified as reported before.[46] In brief, Sf9 cells were infected with a recombinant baculovirus (kindly provided by Dr. B. Hammock, University of California, Davis, CA). Seventy-two hours post-transfection, cells were pelleted and sonicated (3 × 10 s at 4 °C) in lysis buffer containing NaHPO4 (50 mM, pH 8), NaCl (300 mM), glycerol (10%), EDTA (1 mM), phenylmethanesulfonyl fluoride (1 mM), leupeptin (10 μg/mL), and a soybean trypsin inhibitor (60 μg/mL). Supernatants after centrifugation at 100,000 × g (60 min, 4 °C) were subjected to benzylthio-sepharose-affinity chromatography in order to purify sEH by elution with 4-fluorochalcone oxide in PBS containing 1 mM DTT and 1 mM EDTA. Dialyzed and concentrated (Millipore Amicon-Ultra-15 centrifugal filter) enzyme solution was assayed for total protein with a Bio-Rad protein detection kit (Bio-Rad Laboratories, Munich, Germany), and the epoxide hydrolase activity was determined by using a fluorescence-based assay as described before.[47] Shortly, sEH was diluted in Tris buffer (25 mM, pH 7) supplemented with BSA (0.1 mg/mL) to an appropriate enzyme concentration and preincubated with test compounds or vehicle (0.1% DMSO) for 10 min at room temperature (RT). The reaction was started by the addition of 50 μM 3-phenyl-cyano(6-methoxy-2-naphthalenyl)methyl ester-2-oxiraneacetic acid (PHOME), a nonfluorescent compound that is enzymatically converted into fluorescent 6-methoxy-naphtaldehyde at RT. After 60 min, reactions were stopped by ZnSO4 (200 mM) and fluorescence was detected (λem 465 nm, λex 330 nm) using a NOVOstar microplate reader (BMG Labtech GmbH, Ortenberg, Germany), and potential fluorescence of test compounds was subtracted from the read-out, if required.

What is called IC50 is the concentration needed to halve the response being measured. Take `O=C(O)c1ccc2c(=O)n(Cc3ccccc3)c(SCc3ccc(Cl)c(Cl)c3)nc2c1` [Compound 5]: the IC50 in data set [1] was 870 nM. In addition, at Human recombinant sEH [2], the “activity against sEH (in words)” value was “without any activity against sEH”.

What is called melting point is the temperature, or range, at which the solid turns liquid. With `CC(C)(C)CNC(=O)c1ccc2c(=O)[nH]c(SCc3ccc(Cl)cc3)nc2c1` [Compound 36, 2-((4-Chlorobenzyl)thio)-N-neopentyl-4-oxo-3,4-dihydroquinazoline-7-carboxamide], the melting point was in the range of 220 to 222 °C. Further, in data set [3], the IC50 was under 10000 nM, the activity at 1 µM was 89.5 ± 8.9% and the activity at 10 µM came out at 29.7 ± 7.2%. Further, the IC50 on Human recombinant sEH [4] came out at 1100 ± 100 nM.

The molecule `CC(C)(C)CNC(=O)c1ccc2c(=O)[nH]c(SCc3ccccc3C(F)(F)F)nc2c1` [Compound 37, 2-((2-(Trifluoromethyl)benzyl)thio)-N-Neopentyl-4-oxo-3,4-dihydroquinazoline-7-carboxamide] displayed a melting point of 217.9 to 219.3 °C. In data set [3], the IC50 was under 10000 nM, the activity at 1 µM worked out at 97.6 ± 4% and the activity at 10 µM was 20.9 ± 12.1%. Moreover, on Human recombinant sEH [4], the IC50 amounted to 500 ± 50 nM.

`CC(C)(C)CNC(=O)c1ccc2c(=O)[nH]c(SCc3ccc(Cl)c(Cl)c3)nc2c1` [Compound 38, 2-((3,4-Dichlorobenzyl)thio)-N-neopentyl-4-oxo-3,4-dihydroquinazoline-7-carboxamide]: the melting point is 215.5 to 216.9 °C. Also, in data set [3], the IC50 was under 10000 nM, the activity at 1 µM was 105 ± 3.1% and the activity at 10 µM stood at 34.9 ± 10.6%. In addition, the IC50 at Human recombinant sEH [4] amounted to 1600 ± 100 nM.

As a reminder, the remaining activity is what remains of the control signal, in per cent. Take `CC(C)NC(=O)c1ccc2c(=O)[nH]c(SCc3ccccc3Cl)nc2c1` [Compound 45, 2-((2-Chlorobenzyl)thio)-N-isopropyl-4-oxo-3,4-dihydroquinazoline-7-carboxamide]: the melting point was 306.3 °C (dec.). Further, in data set [3], the IC50 was over 10000 nM, the activity at 1 µM stood at 96.6 ± 6.7% and the activity at 10 µM turned out to be 70.3 ± 21.4%. In addition, at Human recombinant sEH [4], the IC50 was over 10000 nM and the remaining activity at 10 µM came out at 71%.

Regarding `CC(C)(C)CNC(=O)c1ccc2c(=O)[nH]c(NCc3ccccc3Cl)nc2c1` [Compound 55, 2-((2-Chlorobenzyl)amino)-N-neopentyl-4-oxo-3,4-dihydroquinazoline-7-carboxamide], the melting point fell in the range of 176.7 to 178.7 °C. For the same molecule, in data set [3], the IC50 came to 2700 ± 800 nM, the activity at 1 µM stood at 77.9 ± 12.1% and the activity at 10 µM came out at 8.9 ± 3.6%. For the same molecule, at Human recombinant sEH [4], the concentration for half-maximal inhibition (IC50) is over 10000 nM and the remaining activity at 10 µM was determined as 68%.
